Data published in publication PMC7525093, “Bis-Quinolinium Cyclophane Blockers of SK Potassium Channels Are Antagonists of M3 Muscarinic Acetylcholine Receptors” (Frontiers in Pharmacology, 2020).

Target: T1, human P2Y1 purinergic receptor (Homo sapiens, UniProt P47900)
T1 construct: expressed in transfected cells; host or cells: CHO cells, transiently co-transfected with pCMV R-CEPIAer
Assay: R-CEPIAer ER calcium assay, CHO cells co-transfected with P2Y1 receptor
Format: cell-based
Settings: 5 μM UCL 1684, 1 μM ATP, read-out: Fractional inhibition of second ATP response
Protocol: [Worded in the source for another target; used here, by the source, with some conditions changed.] The binding of antagonists to Gq-coupled receptors was determined by measuring IP3-mediated calcium depletion from the endoplasmic reticulum (ER). This was accomplished using CHO-K1 cells stably transfected with human M3 muscarinic acetylcholine receptor (CEM3000000, cDNA Resource Center, Bloomsburg University) and R-CEPIAer, a low affinity ER-targeted calcium indicator fluorescent protein ([Suzuki et al., 2014]). R-CEPIAer reporting of ER calcium concentration was assessed using 564 nm excitation light (>590 long-pass emission) at 20 second intervals on a Nikon swept-field confocal microscope using slit-scan mode, 2x2 Binning, and 100 millisecond frames. F/Fmax was fluorescence intensity normalized to maximal fluorescence intensity during the experiment. The response of cells to Gq-coupled receptor agonist were measured as the change in F/Fmax (ΔF/Fmax) from preagonist value to fluorescence minimum during agonist application (that occurs by IP3-mediated ER calcium depletion). […] Perfusion of each agonist application was for 2 min, while the antagonist overlapped and preceded the second agonist application by 3 min. […] IC50 was calculated by assaying fractional inhibition using a dose-response of antagonist concentrations (i.e. Figure 1D ). […]

T1 sequence (P47900 whole entry): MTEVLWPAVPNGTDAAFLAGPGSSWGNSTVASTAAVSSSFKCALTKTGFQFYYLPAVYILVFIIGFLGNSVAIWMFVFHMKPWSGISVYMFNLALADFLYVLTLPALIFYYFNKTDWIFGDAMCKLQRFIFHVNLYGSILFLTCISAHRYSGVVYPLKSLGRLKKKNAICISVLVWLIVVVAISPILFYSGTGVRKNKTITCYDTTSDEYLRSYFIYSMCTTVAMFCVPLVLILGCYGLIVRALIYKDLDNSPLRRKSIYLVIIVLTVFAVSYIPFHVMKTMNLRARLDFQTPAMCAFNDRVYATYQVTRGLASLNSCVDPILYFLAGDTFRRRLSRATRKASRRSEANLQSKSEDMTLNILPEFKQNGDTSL

How did the inhibition at 5 µM turn out when `c1cc2cc(c1)C[n+]1ccc(c3ccccc31)NCc1ccc(cc1)CNc1cc[n+](c3ccccc13)C2` [UCL 1684, 6,12,19,20,25,26-Hexahydro-5,27:13,18:21,24-trietheno-11,7-metheno-7H-dibenzo [b,n] [1,5,12,16]tetraazacyclotricosine-5,13-diium dibromide] was run?
Its inhibition at 5 µM is 6.7 ± 6%.
